{"source": "patent US20210238162A1", "about": "“CHEMICAL COMPOUNDS” (GlaxoSmithKline Intellectual Property Development Limited, priority 2015, published 2021)", "note": "Where a name gives a salt, the structure may show the parent alone.", "data": [{"target": "T1, haematopoietic prostaglandin D synthase (H-PGDS) (Homo sapiens, UniProt O60760)", "T1 construct": "Full length human H-PGDS cDNA (Invitrogen Ultimate ORF IOH13026) was amplified by PCR; made in house; host or cells: E. coli BL21 (DE3*), vector pET22b+", "T1 sequence (O60760 whole entry)": "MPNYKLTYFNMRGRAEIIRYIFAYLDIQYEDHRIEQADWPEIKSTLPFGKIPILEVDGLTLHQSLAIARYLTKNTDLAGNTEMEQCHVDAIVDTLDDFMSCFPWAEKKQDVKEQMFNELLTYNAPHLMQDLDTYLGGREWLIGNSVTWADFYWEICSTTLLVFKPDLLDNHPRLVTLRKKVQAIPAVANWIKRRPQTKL", "assay": "H-PGDS RapidFire High Throughput Mass Spectrometry Assay", "assay_type": "biochemical", "conditions": "H-PGDS RapidFire MS assay, mean pIC50; read-out: Potency Range (mean pIC50) (converted)", "outline": "(§1)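 PGH2 (~10 μM burst) generated in situ from arachidonic acid by FLAG-tagged human COX-2 (Sf9-expressed), then converted to PGD2 by full-length human His-tagged H-PGDS from E. coli. PGD2 and PGF2α (substrate surrogate) quantified by RapidFire SPE-triple quadrupole MS; percent conversion calculated.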", "units": {"IC50": "nM"}, "values": [{"smiles": "C[C@]1(O)C[C@H](NC(=O)c2cnc3cc(OC(F)F)c(Cl)cc3c2)C1", "note": "[Example 137, 6-Chloro-7-(difluoromethoxy)-N-((1r,3r)-3-hydroxy-3-methylcyclobutyl)quinoline-3-carboxamide]", "IC50": "10 to 79.4"}, {"smiles": "C[C@]1(O)CC[C@@H](NC(=O)c2cnc3cc(OC(F)F)c(Cl)cc3c2)CC1", "note": "[Example 147, 6-Chloro-7-(difluoromethoxy)-N-((1s,4s)-4-hydroxy-4-methylcyclohexyl)quinoline-3-carboxamide]", "IC50": "10 to 79.4"}, {"smiles": "CC(C)(O)[C@H]1CC[C@H](NC(=O)c2cnc3cc(SC(F)F)c(F)cc3c2)CC1", "note": "[Example 184, 7-((Difluoromethyl)thio)-6-fluoro-N-(trans-4-(2-hydroxypropan-2-yl)cyclohexyl)quinoline-3-carboxamide]", "IC50": "10 to 79.4"}, {"smiles": "COc1ccc2cc(C(=O)N[C@H]3CC[C@H](C(C)(C)O)CC3)cnc2c1F", "note": "[Example 202, 8-Fluoro-N-(trans-4-(2-hydroxypropan-2-yl)cyclohexyl)-7-methoxyquinoline-3-carboxamide]", "IC50": "10 to 79.4"}, {"smiles": "O=C(N[C@H]1CC[C@H](OCC2(O)CC2)CC1)c1cnc2cc(OC(F)F)c(Cl)cc2c1", "note": "[Example 123, 6-Chloro-7-(difluoromethoxy)-N-(trans-4-((1-hydroxycyclopropyl)methoxy)cyclohexyl)quinoline-3-carboxamide]", "IC50": "< 10"}, {"smiles": "C[C@H]1CCN1c1cc2ncc(C(=O)N[C@H]3CCNC3=O)cc2cc1Cl", "note": "[Example 188, 6-Chloro-7-((S)-2-methylazetidin-1-yl)-N—((S)-2-oxopyrrolidin-3-yl)quinoline-3-carboxamide]", "IC50": "10 to 79.4"}, {"smiles": "C[C@H]1CCN1c1cc2ncc(C(=O)N[C@H]3CC[C@H](C(C)(C)O)CC3)cc2cc1F", "note": "[Example 174, 6-Fluoro-N-(trans-4-(2-hydroxypropan-2-yl)cyclohexyl)-7-((S)-2-methylazetidin-1-yl)quinoline-3-carboxamide]", "IC50": "10 to 79.4"}, {"smiles": "CC(C)(O)[C@@H]1CC[C@@H](NC(=O)c2cnc3cc(OC(F)F)c(Cl)cc3c2)CO1", "note": "(racemic) [Example 124, Racemic 6-chloro-7-(difluoromethoxy)-N-((3r,6s)-6-(2-hydroxypropan-2-yl)tetrahydro-2H-pyran-3-yl)quinoline-3-carboxamide]", "IC50": "< 10"}, {"smiles": "CN1CCN(C(=O)[C@H]2CC[C@H](NC(=O)c3cnc4cc(OC(F)F)c(Cl)cc4c3)CC2)CC1", "note": "[Example 211, 6-Chloro-7-(difluoromethoxy)-N-((trans)-4-(4-methylpiperazine-1-carbonyl)cyclohexyl)quinoline-3-carboxamide]", "IC50": "10 to 79.4"}, {"smiles": "Cc1cc2cc(C(=O)N[C@H]3CC[C@H](C(C)(C)O)CC3)cnc2c(Cl)c1OC(F)F", "note": "[Example 228, 8-Chloro-7-(difluoromethoxy)-N-((trans)-4-(2-hydroxypropan-2-yl)cyclohexyl)-6-methylquinoline-3-carboxamide]", "IC50": "10 to 79.4"}, {"smiles": "C[C@@H](N[C@H]1CC[C@H](NC(=O)c2cnc3cc(OC(F)F)c(Cl)cc3c2)CC1)C(F)F", "note": "[Example 129, 6-Chloro-7-(difluoromethoxy)-N-(trans-4-(((R)-1,1-difluoropropan-2-yl)amino)cyclohexyl)quinoline-3-carboxamide]", "IC50": "< 10"}, {"smiles": "Cn1nnnc1N1CCC(NC(=O)c2cnc3cc(C4CC4)ccc3c2)CC1", "note": "[Example 44, 7-Cyclopropyl-N-(1-(1-methyl-1H-tetrazol-5-yl)piperidin-4-yl)quinoline-3-carboxamide]", "IC50": "< 10"}, {"smiles": "CC(C)(O)[C@H]1CC[C@H](NC(=O)c2cnc3cc(OC(F)(F)F)c(Cl)cc3c2)CC1", "note": "[Example 215B, 6-Chloro-N-((trans)-4-(2-hydroxypropan-2-yl)cyclohexyl)-7-(trifluoromethoxy)quinoline-3-carboxamide]", "IC50": "< 10"}, {"smiles": "O=C(N[C@H]1CC[C@](O)(C(F)(F)F)CC1)c1cnc2cc(OC(F)F)c(Cl)cc2c1", "note": "[Example 223, 6-Chloro-7-(difluoromethoxy)-N-((cis)-4-hydroxy-4-(trifluoromethyl)cyclohexyl)quinoline-3-carboxamide]", "IC50": "10 to 79.4"}, {"smiles": "COc1c(Cl)ccc2cc(C(=O)NC3CCN(c4nnnn4C)CC3)cnc12", "note": "[Example 31, 7-Chloro-8-methoxy-N-(1-(1-methyl-1H-tetrazol-5-yl)piperidin-4-yl)quinoline-3-carboxamide]", "IC50": "100 to 1000"}, {"smiles": "COc1ccc2cc(C(=O)Nc3nccs3)cnc2c1F", "note": "[Example 47, 8-Fluoro-7-methoxy-N-(thiazol-2-yl)quinoline-3-carboxamide hydrochloride]", "IC50": "10 to 79.4"}, {"smiles": "CN(C)c1ccc2cc(C(=O)N[C@H]3CC[C@H](C(C)(C)O)CC3)cnc2c1", "note": "[Example 196, 7-(Dimethylamino)-N-(trans-4-(2-hydroxypropan-2-yl)cyclohexyl)quinoline-3-carboxamide]", "IC50": "< 10"}, {"smiles": "O=C(N[C@H]1CONC1=O)c1cnc2cc(C3CC3)c(Cl)cc2c1", "note": "[Example 38, (S)-6-Chloro-7-cyclopropyl-N-(3-oxoisoxazolidin-4-yl)quinoline-3-carboxamide]", "IC50": "< 10"}, {"smiles": "O=C(NC1CCNC1=O)c1cnc2cc(OC(F)F)c(Cl)cc2c1", "note": "(stereo in doubt) [Example 117, (S)-6-Chloro-7-(difluoromethoxy)-N-(2-oxopyrrolidin-3-yl)quinoline-3-carboxamide, trifluoroacetate]", "IC50": "< 10"}, {"smiles": "CO[C@H]1CC[C@H](NC(=O)c2cnc3cc(OC(F)F)c(F)cc3c2)CC1", "note": "[Example 55, 7-(Difluoromethoxy)-6-fluoro-N-(trans-4-methoxycyclohexyl)quinoline-3-carboxamide]", "IC50": "10 to 79.4"}, {"smiles": "O=C(N[C@H]1CC[C@H](C(=O)N2CCOCC2)CC1)c1cnc2cc(OC(F)F)c(Cl)cc2c1", "note": "[Example 210, 6-Chloro-7-(difluoromethoxy)-N-((trans)-4-(morpholine-4-carbonyl)cyclohexyl)quinoline-3-carboxamide]", "IC50": "< 10"}, {"smiles": "CC(C)(F)c1cc2ncc(C(=O)N[C@H]3CC[C@H](C(C)(C)O)CC3)cc2cc1Cl", "note": "[Example 230, 6-Chloro-7-(2-fluoropropan-2-yl)-N-((trans)-4-(2-hydroxypropan-2-yl)cyclohexyl)quinoline-3-carboxamide]", "IC50": "< 10"}, {"smiles": "O=C(N[C@H]1CCCNC1=O)c1cnc2cc(C3CC3)c(Cl)cc2c1", "note": "[Example 36, (S)-6-Chloro-7-cyclopropyl-N-(2-oxopiperidin-3-yl)quinoline-3-carboxamide hydrochloride]", "IC50": "10 to 79.4"}, {"smiles": "COC(=O)[C@H]1CC[C@H](NC(=O)c2cnc3cc(OC(F)F)c(F)cc3c2)CC1", "note": "[Example 86, trans-Methyl 4-(7-(difluoromethoxy)-6-fluoroquinoline-3-carboxamido)cyclohexanecarboxylate]", "IC50": "< 10"}, {"smiles": "CC(N[C@H]1CC[C@H](NC(=O)c2cnc3cc(OC(F)F)c(F)cc3c2)CC1)C(F)F", "note": "(stereo partly drawn) [Example 67, 7-(Difluoromethoxy)-N-(trans-4-((1,1-difluoropropan-2-yl)amino)cyclohexyl)-6-fluoroquinoline-3-carboxamide]", "IC50": "10 to 79.4"}, {"smiles": "CC(C)(O)CO[C@H]1CC[C@H](NC(=O)c2cnc3cc(OC(F)F)c(Cl)cc3c2)CC1", "note": "[Example 122, 6-Chloro-7-(difluoromethoxy)-N-(trans-4-(2-hydroxy-2-methylpropoxy)cyclohexyl)quinoline-3-carboxamide]", "IC50": "< 10"}, {"smiles": "O=C(N[C@H]1CC[C@H]([C@H](O)C(F)(F)F)CC1)c1cnc2cc(OC(F)F)ccc2c1", "note": "(single isomer, unassigned) [Example 21]", "IC50": "< 10"}]}, {"target": "T1, haematopoietic prostaglandin D synthase (H-PGDS)", "assay": "H-PGDS RapidFire High Throughput Mass Spectrometry Assay", "assay_type": "biochemical", "conditions": "in at least one experimental run; read-out: H-PGDS pIC50 value (converted)", "outline": "as §1", "units": {"IC50": "nM"}, "values": [{"smiles": "O=C(N[C@H]1CCCNC1=O)c1cnc2cc(C3CC3)c(Cl)cc2c1", "note": "[Example 36, (S)-6-Chloro-7-cyclopropyl-N-(2-oxopiperidin-3-yl)quinoline-3-carboxamide hydrochloride]", "IC50": 15.8}]}]}
